Data reported in the supplement of paper PMC10883282.
± gives the standard deviation of the averaged measurements.

Test system: SW1353
Assay: relative viability vs DMSO control (72 h) (fraction); higher = more viable cells
In short: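 Sarcoma cell lines were seeded in 384-well plates at densities set to reach 80–90% confluence. After 24 h, 2.5 µl of serially diluted compound was added (source plates 10 mM to 0.0002 mM), and plates were held 72 h at 37 °C, 5% CO2, with 0.1% DMSO vehicle and a 5 µM positive control. Relative viability came from ATPLite readings as percent growth, averaged over up to triplicate wells. Data were rescaled so full viability equals 1 and none equals 0.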

Structure (SMILES): COc1cc2c(cc1O)CCN[C@]21CS[C@@H]2c3c(OC(C)=O)c(C)c4c(c3[C@H](COC1=O)N1[C@@H]2[C@H]2c3c(cc(C)c(OC)c3O)C[C@@H]([C@@H]1O)N2C)OCO4 [Trabectedin]
- relative viability (2 pM): 1.09 ± 0.017
- relative viability (5 pM): 1.09 ± 0.027
- relative viability (15 pM): 1.06 ± 0.03
- relative viability (50 pM): 1.04 ± 0.013
- relative viability (0.00014 µM): 1.04 ± 0.03
- relative viability (0.00041 µM): 0.92 ± 0.018
- relative viability (0.0012 µM): 0.0356 ± 0.003
- relative viability (0.0037 µM): 0.229 ± 0.0077
- relative viability (0.011 µM): 0.186 ± 0.015
- relative viability (200 fM): 1.1 ± 0.027
- relative viability (600 fM): 1.1 ± 0.012

Structure (SMILES): C=CC(=O)Nc1cccc(Oc2nc(Nc3ccc(N4CCN(C)CC4)cc3)nc3ccsc23)c1 [Olmutinib]
- relative viability (0.00017 µM): 1.03 ± 0.048
- relative viability (0.00051 µM): 1.06 ± 0.059
- relative viability (0.00152 µM): 1.04 ± 0.013
- relative viability (0.00457 µM): 1.04 ± 0.048
- relative viability (0.01372 µM): 1.03 ± 0.038
- relative viability (0.04115 µM): 1.02 ± 0.03
- relative viability (0.1235 µM): 0.997 ± 0.031
- relative viability (0.3704 µM): 0.95 ± 0.086
- relative viability (1.111 µM): 0.857 ± 0.021
- relative viability (3.333 µM): 0.755 ± 0.012
- relative viability (10 µM): 0.104 ± 0.0062

Structure (SMILES): CC(C)NC(=O)C1CCC(n2c(NC(=O)c3ccc(F)cc3)nc3ccc(CN4CCC(C(C)(C)O)CC4)cc32)CC1 (stereo not drawn) [Belizatinib]
- relative viability (0.00017 µM): 1.02 ± 0.03
- relative viability (0.00051 µM): 0.987 ± 0.045
- relative viability (0.00152 µM): 1.02 ± 0.014
- relative viability (0.00457 µM): 1.05 ± 0.062
- relative viability (0.01372 µM): 1.03 ± 0.015
- relative viability (0.04115 µM): 1.03 ± 0.03
- relative viability (0.1235 µM): 0.944 ± 0.012
- relative viability (0.3704 µM): 0.929 ± 0.022
- relative viability (1.111 µM): 0.808 ± 0.03
- relative viability (3.333 µM): 0.648 ± 0.021
- relative viability (10 µM): 0.441 ± 0.024

Structure (SMILES): CCN1CCN(Cc2ccc(Nc3ncc(F)c(-c4cc(F)c5nc(C)n(C(C)C)c5c4)n3)nc2)CC1 [Abemaciclib]
- relative viability (0.00017 µM): 0.958 ± 0.031
- relative viability (0.00051 µM): 0.974 ± 0.017
- relative viability (0.00152 µM): 0.976 ± 0.021
- relative viability (0.00457 µM): 0.944 ± 0.011
- relative viability (0.01372 µM): 0.9333 ± 0.0082
- relative viability (0.04115 µM): 0.884 ± 0.033
- relative viability (0.1235 µM): 0.778 ± 0.023
- relative viability (0.3704 µM): 0.74 ± 0.021
- relative viability (1.111 µM): 0.699 ± 0.024
- relative viability (3.333 µM): 0.73 ± 0.046
- relative viability (10 µM): 0.721 ± 0.047

Structure (SMILES): COc1c(OCCCN2CCOCC2)ccc2c1N=C(NC(=O)c1cnc(N)nc1)N1CCN=C21 [Copanlisib]
- relative viability (0.00017 µM): 1.08 ± 0.053
- relative viability (0.00051 µM): 1.05 ± 0.054
- relative viability (0.00152 µM): 1.01 ± 0.025
- relative viability (0.00457 µM): 0.917 ± 0.011
- relative viability (0.01372 µM): 0.845 ± 0.033
- relative viability (0.04115 µM): 0.743 ± 0.047
- relative viability (0.1235 µM): 0.635 ± 0.045
- relative viability (0.3704 µM): 0.518 ± 0.011
- relative viability (1.111 µM): 0.441 ± 0.015
- relative viability (3.333 µM): 0.412 ± 0.03
- relative viability (10 µM): 0.364 ± 0.017

Structure (SMILES): Cc1nc(-c2cn3c(n2)-c2ccc(-c4cnn(C(C)(C)C(N)=O)c4)cc2OCC3)n(C(C)C)n1 [Taselisib]
- relative viability (0.00017 µM): 0.925 ± 0.035
- relative viability (0.00051 µM): 0.933 ± 0.02
- relative viability (0.00152 µM): 0.953 ± 0.025
- relative viability (0.00457 µM): 0.971 ± 0.013
- relative viability (0.01372 µM): 0.884 ± 0.043
- relative viability (0.04115 µM): 0.856 ± 0.031
- relative viability (0.1235 µM): 0.785 ± 0.03
- relative viability (0.3704 µM): 0.762 ± 0.014
- relative viability (1.111 µM): 0.69 ± 0.021
- relative viability (3.333 µM): 0.599 ± 0.021
- relative viability (10 µM): 0.469 ± 0.0077

Structure (SMILES): O=C(Cc1ccc(-c2ccc(OCCN3CCOCC3)cc2)cn1)NCc1ccccc1 [KX2-391]
- relative viability (0.00017 µM): 1.06 ± 0.023
- relative viability (0.00051 µM): 1.09 ± 0.031
- relative viability (0.00152 µM): 1.02 ± 0.014
- relative viability (0.00457 µM): 1.01 ± 0.035
- relative viability (0.01372 µM): 0.962 ± 0.01
- relative viability (0.04115 µM): 0.952 ± 0.011
- relative viability (0.1235 µM): 0.607 ± 0.037
- relative viability (0.3704 µM): 0.446 ± 0.024
- relative viability (1.111 µM): 0.425 ± 0.018
- relative viability (3.333 µM): 0.462 ± 0.014
- relative viability (10 µM): 0.458 ± 0.019

Structure (SMILES): C[C@@H]1COCCN1c1cc(-c2ccnn2C)c2ccnc(-c3ccn[nH]3)c2n1
- relative viability (0.00017 µM): 0.988 ± 0.026
- relative viability (0.00051 µM): 0.94 ± 0.015
- relative viability (0.00152 µM): 0.974 ± 0.035
- relative viability (0.00457 µM): 0.978 ± 0.065
- relative viability (0.01372 µM): 0.933 ± 0.059
- relative viability (0.04115 µM): 0.872 ± 0.028
- relative viability (0.1235 µM): 0.769 ± 0.026
- relative viability (0.3704 µM): 0.624 ± 0.027
- relative viability (1.111 µM): 0.507 ± 0.0081
- relative viability (3.333 µM): 0.41 ± 0.005
- relative viability (10 µM): 0.392 ± 0.014

Structure (SMILES): Cc1cnc(Nc2ccc(OCCN3CCCC3)cc2)nc1Nc1cccc(S(=O)(=O)NC(C)(C)C)c1 [Fedratinib]
- relative viability (0.00017 µM): 1.058 ± 0.01
- relative viability (0.00051 µM): 1.02 ± 0.05
- relative viability (0.00152 µM): 1.03 ± 0.038
- relative viability (0.00457 µM): 1.02 ± 0.016
- relative viability (0.01372 µM): 0.987 ± 0.048
- relative viability (0.04115 µM): 1 ± 0.046
- relative viability (0.1235 µM): 0.915 ± 0.018
- relative viability (0.3704 µM): 0.764 ± 0.036
- relative viability (1.111 µM): 0.533 ± 0.022
- relative viability (3.333 µM): 0.184 ± 0.0053
- relative viability (10 µM): 0.00437 ± 0.0012

Structure (SMILES): CC(C)N1CCN(Cc2cnc(-c3cc(-c4cccc5[nH]ccc45)cc4[nH]ncc34)o2)CC1 [Nemiralisib]
- relative viability (0.00017 µM): 1.07 ± 0.033
- relative viability (0.00051 µM): 0.997 ± 0.044
- relative viability (0.00152 µM): 0.992 ± 0.023
- relative viability (0.00457 µM): 0.99 ± 0.032
- relative viability (0.01372 µM): 0.983 ± 0.02
- relative viability (0.04115 µM): 0.965 ± 0.043
- relative viability (0.1235 µM): 0.948 ± 0.04
- relative viability (0.3704 µM): 0.914 ± 0.025
- relative viability (1.111 µM): 0.85 ± 0.053
- relative viability (3.333 µM): 0.721 ± 0.044
- relative viability (10 µM): 0.59 ± 0.067

Structure (SMILES): Cc1ccc(NC(=O)c2ccc(CN3CCN(C)CC3)cc2)cc1Nc1nc(-c2cccnc2)cs1 [Masitinib]
- relative viability (0.00017 µM): 1.03 ± 0.017
- relative viability (0.00051 µM): 0.998 ± 0.012
- relative viability (0.00152 µM): 0.986 ± 0.023
- relative viability (0.00457 µM): 0.9886 ± 0.0079
- relative viability (0.01372 µM): 0.989 ± 0.014
- relative viability (0.04115 µM): 1.018 ± 0.0045
- relative viability (0.1235 µM): 0.925 ± 0.006
- relative viability (0.3704 µM): 0.86 ± 0.049
- relative viability (1.111 µM): 0.755 ± 0.047
- relative viability (3.333 µM): 0.478 ± 0.026
- relative viability (10 µM): 0.032 ± 0.0052

Structure (SMILES): CCc1cc2c(cc1N1CCC(N3CCOCC3)CC1)C(C)(C)c1[nH]c3cc(C#N)ccc3c1C2=O [Alectinib]
- relative viability (0.00017 µM): 0.987 ± 0.02
- relative viability (0.00051 µM): 0.993 ± 0.027
- relative viability (0.00152 µM): 1.01 ± 0.019
- relative viability (0.00457 µM): 1.002 ± 0.0077
- relative viability (0.01372 µM): 0.996 ± 0.038
- relative viability (0.04115 µM): 1.04 ± 0.012
- relative viability (0.1235 µM): 0.988 ± 0.057
- relative viability (0.3704 µM): 1.07 ± 0.032
- relative viability (1.111 µM): 0.9953 ± 0.0051
- relative viability (3.333 µM): 1.06 ± 0.058
- relative viability (10 µM): 1.14 ± 0.016

Structure (SMILES): COc1cc2nccc(Oc3ccc(NC(=O)Nc4cc(C)on4)c(Cl)c3)c2cc1OC [Tivozanib]
- relative viability (0.00017 µM): 0.97 ± 0.029
- relative viability (0.00051 µM): 0.983 ± 0.036
- relative viability (0.00152 µM): 0.965 ± 0.044
- relative viability (0.00457 µM): 0.961 ± 0.064
- relative viability (0.01372 µM): 1.01 ± 0.033
- relative viability (0.04115 µM): 0.988 ± 0.028
- relative viability (0.1235 µM): 1.01 ± 0.021
- relative viability (0.3704 µM): 1.04 ± 0.021
- relative viability (1.111 µM): 1.05 ± 0.054
- relative viability (3.333 µM): 0.8973 ± 0.0033
- relative viability (10 µM): 0.582 ± 0.0097
